# According to article PMC9270327 (Communications Biology, 2022):
# Counter-ions that a name gives are not always drawn.
# Tests used:
# factor Xa = target: T1, factor Xa (Homo sapiens, UniProt P00742); test: Enzyme inhibition assay with purified factor Xa (Ki, dose-response); assay type: biochemical; details: for factor Xa activity, Mean (Fig. 2d): normalized
# T1 construct: purchased Bio-Techne GmbH (Wiesbaden, Germany)
# From the text: (§1) Recombinant human TMPRSS2 was purchased from Creative BioMart (New York, USA) or LSBio (Seattle, USA), factor Xa was obtained from Bio-Techne GmbH (Wiesbaden, Germany). Recombinant human thrombin and matriptase protein were purchased from R&D Systems (Minneapolis, MN, USA).
# [1] = target: T2, recombinant human thrombin (Homo sapiens, UniProt P00734); test: Enzyme inhibition assay with purified thrombin (Ki, dose-response); assay type: biochemical; details: normalized
# T2 construct: purchased R&D Systems (Minneapolis, MN, USA)
# From the text: as §1
# [2] = target: T3, TMPRSS2 expressed in HEK293T cells (Homo sapiens, UniProt O15393); test: Inhibition of cellular TMPRSS2 activity on HEK293T cells transiently expressing TMPRSS2; assay type: cell-based; details: 2 h, corrected for mock-transfected cells
# T3 construct: host or cells: HEK293T (ATCC)
# T3 sequence (O15393 whole entry): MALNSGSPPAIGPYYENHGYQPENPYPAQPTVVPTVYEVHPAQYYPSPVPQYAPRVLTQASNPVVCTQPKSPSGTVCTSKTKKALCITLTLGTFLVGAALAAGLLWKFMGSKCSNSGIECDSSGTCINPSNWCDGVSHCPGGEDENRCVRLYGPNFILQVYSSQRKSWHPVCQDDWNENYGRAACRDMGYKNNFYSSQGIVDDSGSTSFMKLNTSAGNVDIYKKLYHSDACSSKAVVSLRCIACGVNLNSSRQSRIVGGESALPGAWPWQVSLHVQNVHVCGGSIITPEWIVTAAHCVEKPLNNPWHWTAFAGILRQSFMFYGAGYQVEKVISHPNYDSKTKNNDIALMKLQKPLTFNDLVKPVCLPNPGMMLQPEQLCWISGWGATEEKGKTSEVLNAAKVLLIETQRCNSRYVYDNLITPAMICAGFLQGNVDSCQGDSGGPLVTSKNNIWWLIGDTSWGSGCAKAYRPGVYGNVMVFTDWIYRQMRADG
# Method: In total, 10,000 Caco-2 cells (ATCC) in 100 µL EMEM medium supplemented with 10% FBS, 100 U/mL penicillin, […] streptomycin, and 2 mM glutamine (all Invitrogen, Germany) were seeded per well in a 96-well plate and incubated at 37 °C for 4 days until full confluency of the cells. The cells were washed two times with PBS and EMEM medium without FBS was added. […] The fluorescence intensity was measured as described above. In all, 20,000 HEK293T cells (ATCC) were seeded in 100 µL DMEM supplemented with 10% FBS, 100 U/mL penicillin, […] streptomycin, and 2 mM glutamine. […] […] […] Fluorescence intensity was measured after 2 h at 37 °C as described above.
# TMPRSS2 = TMPRSS2 (Homo sapiens, UniProt O15393); test: Plasma stability: residual TMPRSS2 inhibition after incubation in human plasma
# TMPRSS2, sequence (O15393 whole entry): as above
# Method: The activity of the compounds against the recombinant human enzymes was determined in enzyme inhibition assays. […] The measurements were performed on a Tecan infinite® M1000 and the fluorescence intensity was measured by exciting the AMC fluorophore at 380 nm wavelength and recording emission at 460 nm wavelength. […] Fluorescence intensities and absorption were measured every 2 min for 2 h or as endpoint after 2 h. […] To determine the IC50 values, the concentration-response data were plotted with the program GraphPad prism version 8.4.2 (San Diego, California) and a nonlinear regression fit with the equation [Inhibitor] vs. normalized response was applied. The inhibitory constant Ki was calculated from the IC50 values using the Cheng–Prusoff equation (Ki = IC50/[S]/KM) for competitive reversible inhibitors[66].
# The stability of the inhibitors was measured according to a modified procedure from ref. [67]. […] At indicated timepoints, 100 µL samples were taken and mixed with 200 µL of ethanol to precipitate proteins. […] The supernatant was aspirated and analyzed using analytical HPLC. The residual inhibitory constants Ki after incubation was assessed by mixing serial dilutions of the inhibitor with recombinant TMPRSS2 as described above.
# Shown are the means ± SD of n=1 experiment performed in triplicates.
# T1 sequence (P00742 235-488 limits assumed): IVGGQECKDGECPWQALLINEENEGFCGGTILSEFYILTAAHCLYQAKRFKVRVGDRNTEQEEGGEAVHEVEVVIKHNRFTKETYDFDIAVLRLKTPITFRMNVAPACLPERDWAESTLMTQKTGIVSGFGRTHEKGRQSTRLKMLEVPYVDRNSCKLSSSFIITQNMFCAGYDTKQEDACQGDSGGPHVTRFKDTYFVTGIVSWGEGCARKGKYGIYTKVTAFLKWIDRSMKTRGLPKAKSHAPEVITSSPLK
# T1 sequence (P00742 41-179 partner limits assumed): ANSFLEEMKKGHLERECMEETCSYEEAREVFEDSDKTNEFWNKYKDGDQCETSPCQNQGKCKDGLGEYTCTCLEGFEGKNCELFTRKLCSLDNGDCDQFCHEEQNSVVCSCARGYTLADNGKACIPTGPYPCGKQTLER
smiles,measurement,setting,value
"CN(C)C(=O)COC(=O)Cc1ccc(OC(=O)c2ccc(NC(=N)N)cc2)cc1 [CM, camostat mesylate, reference compound]","factor Xa activity, Mean (Fig. 2d)","factor Xa; 0.04 nM, 0 nM = 100",85.6127
same,"factor Xa activity, Mean (Fig. 2d)","factor Xa; 0.2 nM, 0 nM = 100",89.6222
same,"factor Xa activity, Mean (Fig. 2d)","factor Xa; 2 nM, 0 nM = 100",92.4525
same,"factor Xa activity, Mean (Fig. 2d)","factor Xa; 20 nM, 0 nM = 100",96.9338
same,"factor Xa activity, Mean (Fig. 2d)","factor Xa; 200 nM, 0 nM = 100",78.0652
same,"factor Xa activity, Mean (Fig. 2d)",factor Xa; 1000 nM,72.1688
same,"factor Xa activity, Mean (Fig. 2d)","factor Xa; 10000 nM, 0 nM = 100",33.4905
same,"factor Xa activity, Mean (Fig. 2d)","factor Xa; 100000 nM, 0 nM = 100",14.8585
same,Ki,"factor Xa; 30 min preincubation, substrate Bz-Ile-Glu-Gly-Arg-pNA",1790 nM
same,"thrombin activity, Mean (Fig. 2c)",[1]; 0.01 nM,98.2939
same,"thrombin activity, Mean (Fig. 2c)","[1]; 0.02 nM, 0 nM = 100",99.8688
same,"thrombin activity, Mean (Fig. 2c)","[1]; 0.04 nM, 0 nM = 100",100.525
same,"thrombin activity, Mean (Fig. 2c)","[1]; 0.2 nM, 0 nM = 100",103.675
same,"thrombin activity, Mean (Fig. 2c)","[1]; 2 nM, 0 nM = 100",103.806
same,"thrombin activity, Mean (Fig. 2c)","[1]; 20 nM, 0 nM = 100",105.906
same,"thrombin activity, Mean (Fig. 2c)","[1]; 10000 nM, 0 nM = 100",73.8845
same,"thrombin activity, Mean (Fig. 2c)","[1]; 100000 nM, 0 nM = 100",23.2283
same,"normalized fluorescence intensity, HEK293T TMPRSS2, Mean (Fig. 4b)",[2]; 0.5 nM,47.42
same,"normalized fluorescence intensity, HEK293T TMPRSS2, Mean (Fig. 4b)",[2]; 5 nM,43.185
same,"normalized fluorescence intensity, HEK293T TMPRSS2, Mean (Fig. 4b)",[2]; 50 nM,9.45
same,"normalized fluorescence intensity, HEK293T TMPRSS2, Mean (Fig. 4b)",[2]; 500 nM,8.435
same,"normalized fluorescence intensity, HEK293T TMPRSS2, Mean (Fig. 4b)",[2]; 5000 nM,0.32
same,"normalized fluorescence intensity, HEK293T TMPRSS2, Mean (Fig. 4b)",[2]; 50000 nM,-3.52
same,"TMPRSS2 activity, Mean (0 nM = 100)","TMPRSS2; inhibitor 0.0167 nM, 0 min in plasma",112.439
same,"TMPRSS2 activity, Mean (0 nM = 100)","TMPRSS2; inhibitor 0.0167 nM, 30 min in plasma",99.4869
same,"TMPRSS2 activity, Mean (0 nM = 100)","TMPRSS2; inhibitor 0.0167 nM, 60 min in plasma",94.1158
same,"TMPRSS2 activity, Mean (0 nM = 100)","TMPRSS2; inhibitor 0.0167 nM, 120 min in plasma",100.839
same,"TMPRSS2 activity, Mean (0 nM = 100)","TMPRSS2; inhibitor 0.0167 nM, 24 h in plasma",102.049
same,"TMPRSS2 activity, Mean (0 nM = 100)","TMPRSS2; inhibitor 0.0167 nM, 10 d in plasma",98.7798
same,"TMPRSS2 activity, Mean (0 nM = 100)","TMPRSS2; inhibitor 0.0167 nM, positive ctrl",95.8208
same,"TMPRSS2 activity, Mean (0 nM = 100)","TMPRSS2; inhibitor 0.167 nM, 0 min in plasma",118.068
same,"TMPRSS2 activity, Mean (0 nM = 100)","TMPRSS2; inhibitor 0.167 nM, 30 min in plasma",99.3363
same,"TMPRSS2 activity, Mean (0 nM = 100)","TMPRSS2; inhibitor 0.167 nM, 60 min in plasma",90.9592
same,"TMPRSS2 activity, Mean (0 nM = 100)","TMPRSS2; inhibitor 0.167 nM, 120 min in plasma",99.9584
same,"TMPRSS2 activity, Mean (0 nM = 100)","TMPRSS2; inhibitor 0.167 nM, 24 h in plasma",103.994
same,"TMPRSS2 activity, Mean (0 nM = 100)","TMPRSS2; inhibitor 0.167 nM, 10 d in plasma",99.2067
same,"TMPRSS2 activity, Mean (0 nM = 100)","TMPRSS2; inhibitor 0.167 nM, positive ctrl",72.6812
same,"TMPRSS2 activity, Mean (0 nM = 100)","TMPRSS2; inhibitor 1.665 nM, 0 min in plasma",103.981
same,"TMPRSS2 activity, Mean (0 nM = 100)","TMPRSS2; inhibitor 1.665 nM, 30 min in plasma",95.5323
same,"TMPRSS2 activity, Mean (0 nM = 100)","TMPRSS2; inhibitor 1.665 nM, 60 min in plasma",85.541
same,"TMPRSS2 activity, Mean (0 nM = 100)","TMPRSS2; inhibitor 1.665 nM, 120 min in plasma",96.8319
same,"TMPRSS2 activity, Mean (0 nM = 100)","TMPRSS2; inhibitor 1.665 nM, 24 h in plasma",101.166
same,"TMPRSS2 activity, Mean (0 nM = 100)","TMPRSS2; inhibitor 1.665 nM, 10 d in plasma",96.8623
same,"TMPRSS2 activity, Mean (0 nM = 100)","TMPRSS2; inhibitor 1.665 nM, positive ctrl",21.364
same,"TMPRSS2 activity, Mean (0 nM = 100)","TMPRSS2; inhibitor 16.65 nM, 0 min in plasma",71.7511
same,"TMPRSS2 activity, Mean (0 nM = 100)","TMPRSS2; inhibitor 16.65 nM, 30 min in plasma",65.1615
same,"TMPRSS2 activity, Mean (0 nM = 100)","TMPRSS2; inhibitor 16.65 nM, 60 min in plasma",67.6129
same,"TMPRSS2 activity, Mean (0 nM = 100)","TMPRSS2; inhibitor 16.65 nM, 120 min in plasma",74.7383
same,"TMPRSS2 activity, Mean (0 nM = 100)","TMPRSS2; inhibitor 16.65 nM, 24 h in plasma",100.72
same,"TMPRSS2 activity, Mean (0 nM = 100)","TMPRSS2; inhibitor 16.65 nM, 10 d in plasma",95.3646
same,"TMPRSS2 activity, Mean (0 nM = 100)","TMPRSS2; inhibitor 16.65 nM, positive ctrl",5.9227
same,"TMPRSS2 activity, Mean (0 nM = 100)","TMPRSS2; inhibitor 166.5 nM, 0 min in plasma",5.478
same,"TMPRSS2 activity, Mean (0 nM = 100)","TMPRSS2; inhibitor 166.5 nM, 30 min in plasma",3.6809
same,"TMPRSS2 activity, Mean (0 nM = 100)","TMPRSS2; inhibitor 166.5 nM, 60 min in plasma",3.225
